Test results reported in patent publication US20160067208A1, “ADHESION PREVENTING AGENT” (FARNEX INCORPORATED, priority 2013, published 2016).

Tests used:
Assay type in all cases: physicochemical
[1] = Preparability and temperature stability of comparative formulations; conditions: 0.65 cs dimethicone (GMO: 1.00 g in 2.33 g)
Description: 2.33 g of 0.65 cs dimethicone (Dow Corning Q7-9180 Silocon Fluid 0.65 CST) was added to 1.00 g of GMO (Rikemal XO-100L, Riken Vitamin Co., Ltd.), followed by stirring to prepare a solution.
Additionally, an o/w dispersion of GMO having the same composition as test sample 18 as described above was prepared, and stored at a refrigerated temperature (7° C.). […] Thus, it is shown that the o/w dispersion of GMO has low temperature stability.
In accordance with Example 14 described in JP Patent Publication No. 2008-528463A, GDO (4.30 g), SPC (Lecinol S-10E, 2.90 g), P80 (1.80 g), and ethanol (1.00 g) were mixed to prepare a liquid crystal precursor composition (GDO/SPC/P80/EtOH=43:29:18:10).
6 mL of distilled water was added to 1.388 g of the liquid crystal precursor composition, followed by stirring for 1 hour to prepare test sample 6 (GDO/SPC/P80/EtOH/water=[…]:81.2).
Thus, it was impossible to prepare a lipid/dimethicone preparation, unlike test samples 13, 14, 21 and 23. […] It was considered that this was due to high viscosity of the sample.

[2] = Viscosity of the compound itself (Gemini II, Malvern); conditions: 25° C., at shear velocity of 92 1/s
Description: In addition, the amphipathic compound to be used for the adhesion preventing agent of the present invention has low viscosity in itself. Specifically, the amphipathic compound to be used for the adhesion preventing agent of the present invention has a viscosity of preferably 15.0 Pa·s or less, more preferably 11.0 Pa·s or less, and further preferably 6.0 Pa·s or less as measured at 25° C. in itself. The viscosity can be measured using, for example, a viscosity and viscoelasticity measuring apparatus (Gemini II, Malvern Instruments Ltd.) at 25° C.
The viscosity of each of the compounds described in the Examples 1-7 was measured using a viscosity/viscoelasticity measuring instrument (Gemini II, Malvern) at the temperature of 25° C.

[3] = SAXS analysis of compound/water system (liquid crystal formation); conditions: compound/water system gel, 50% by mass in water-excess condition, room temperature (25° C.)
From the text: Whether or not a liquid crystal structure has a cubic lattice may be determined by a small-angle X-ray scattering (SAXS) method, for the purpose of confirming liquid crystal formation. First, an amphipathic compound/water system sample with a predetermined concentration can be filled into an X-ray capillary tube made of quartz, for example, and the capillary tube is sealed with an oxy-fuel burner, and subjected to SAXS assay.
Mono-O-(5,9,13-trimethyltetradeca-4,8,12-trienoyl)glycerol synthesized in Example 1 and pure water were introduced into a mixing device at the concentration of 50% by mass of mono-O-(5,9,13-trimethyltetradeca-4,8,12-trienoyl)glycerol (in water-excess condition), and they were mixed at room temperature (25° C.) and left for 24 hours to obtain a homogeneous mixture. Then the separated water was removed. Thus, a sample of mono-O-(5,9,13-trimethyltetradeca-4,8,12-trienoyl)glycerol/water system was obtained as a white turbid to colorless transparent gel composition in appearance (it was referred to below as the gel sample).
Subsequently, the gel sample was analyzed by small-angle x-ray scattering (SAXS). The NANO-Viewer nano-scale X-ray structure analysis equipment (Rigaku) was used for SAXS analysis, which was performed by X-ray irradiation at room temperature (25° C.), 40 kV, 50 mA, wavelength λ=0.1542 nm (Cu-Kα).
Each of the compounds synthesized in Example 32, 33, 43, 45, 49, and 50 and water were homogeneously mixed in accordance with the same procedure as in Example 9 to obtain a sample of each compound/water system being a gel in appearance. SAXS analysis of these gel samples was performed in the same manner as in Example 9. […]

[4] = Shear viscosity of liquid crystal gels; conditions: gel prepared by addition of water, 25° C.
Description: (§1) The viscosity was measured for the gels prepared by addition of water to the compounds synthesized in Examples 1, 4, and 5. Specifically, for the gel samples obtained by mixing homogeneously according to the same procedure as in Example 9, the shear viscosity was measured at a temperature of 25° C., using a viscosity and viscoelasticity measuring apparatus (Gemini II, Malvern Instruments Ltd.; cone plate φ25, cone angle 1°).
as §1, with “45” for “1, 4,”, “50, and C17 glycerin ester synthesized in Example 13.” for “5.”

Viscosity [2] [Pa·s]	Viscosity ([4]; shear velocity 12 1/s) [Pas · sec]	Viscosity ([4]; shear velocity 100.8 1/s) [Pas · sec]	Viscosity ([4]; shear velocity 10 1/s) [Pas · sec]	Viscosity ([4]; shear velocity 105 1/s) [Pas · sec]	SMILES	state / solubility in dimethicone [1]	liquid crystal structure (SAXS peak value ratio) [3]
–	–	–	–	–	CCCCCCCC/C=C\CCCCCCCC(=O)OCC(O)CO (stereo not shown) [GMO, Glyceryl Monooleate]	crystals were precipitated	–
5.8	333	17	–	–	CC(C)=CCC/C(C)=C/CC/C(C)=C/CCC(C)=CCCC(=O)OCC(O)C(O)CO (stereo not shown) [Example 5, mono-O-(5,9,13,17-tetramethyloctadeca-4,8,12,16-tetraenoyl)erythritol]	–	cubic liquid crystal that belongs to the crystallographic space group Pn3m
0.78	–	–	81	14	CC(C)=CCC/C(C)=C/CC/C(C)=C/CCC(C)=CCCCOCC(CO)(CO)CO [Example 50, mono-O-(5,9,13,17-tetramethyloctadeca-4,8,12,16-tetraenyl)pentaerythritol]	–	reverse hexagonal liquid crystals
0.26	461	37	–	–	CC(C)=CCC/C(C)=C/CCC(C)=CCCC(=O)OCC(O)CO (stereo not shown) [Example 1, mono-O-(5,9,13-trimethyltetradeca-4,8,12-trienoyl)glycerol]	–	cubic liquid crystal that belongs to the crystallographic space group Pn3m
